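Exposure lasted 48 hours, with cells grown in 96-well plates and compounds tested at five concentrations. The concentration for 50% growth inhibition is given as GI50.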 Active and inactive are the calls of the source. Cut-off read from the data, not from the text of the source: active = GI50 up to about 1.1 µM and inactive = higher.
Experiments:
Experiment in all cases: growth of human tumour cells (NCI), 48 h
[1] = tested on: NCI-H460
[2] = tested on: U-251
[3] = tested on: SF-268
[4] = tested on: NCI/ADR-RES
[5] = tested on: A549
[6] = tested on: HOP-62
[7] = tested on: T47D
[8] = tested on: K562
[9] = tested on: SW-620
[10] = tested on: LOX IMVI
[11] = tested on: 786-0
[12] = tested on: OVCAR-3
[13] = tested on: OVCAR-4
[14] = tested on: HCT-15
[15] = tested on: NCI-H522
[16] = tested on: SK-OV-3
[17] = tested on: HCC 2998
[18] = tested on: UACC-257
[19] = tested on: SR
[20] = tested on: OVCAR-5

SMILES | GI50 [1] | GI50 [2] | GI50 [3] | GI50 [4] | GI50 [5] | GI50 [6] | GI50 [7] | GI50 [8] | GI50 [9] | GI50 [10] | GI50 [11] | GI50 [12] | GI50 [13] | GI50 [14] [µM] | GI50 [15] | GI50 [16] | GI50 [17] | GI50 [18] | GI50 [19] | GI50 [20]
Cc1cc(=O)oc2cc(OC(=O)Nc3ccccc3)ccc12 | 84.7 µM (inactive) | 86.3 µM (inactive) | > 100 µM (inactive) | 63.2 µM (inactive) | 62.1 µM (inactive) | > 100 µM (inactive) | 41.9 µM (inactive) | 35.6 µM (inactive) | 62.8 µM (inactive) | > 100 µM (inactive) | > 100 µM (inactive) | 61 µM (inactive) | > 100 µM (inactive) | 50.9 | 53.1 µM (inactive) | 70.6 µM (inactive) | 84.3 µM (inactive) | > 100 µM (inactive) | 29.5 µM (inactive) | > 100 µM (inactive)
O=C(Sc1c(-c2ccccc2)c(=O)n(-c2ccccc2)c(=S)n1-c1ccccc1)c1ccco1 | > 100 µM (inactive) | > 100 µM (inactive) | > 100 µM (inactive) | > 100 µM (inactive) | > 100 µM (inactive) | > 100 µM (inactive) | > 100 µM (inactive) | 34 µM (inactive) | > 57.5 µM (inactive) | > 100 µM (inactive) | > 100 µM (inactive) | 99.3 µM (inactive) | > 100 µM (inactive) | > 89.1 | > 76.9 µM (inactive) | > 100 µM (inactive) | > 100 µM (inactive) | > 31.6 µM (inactive) | 29.2 µM (inactive) | > 100 µM (inactive)
Cn1c(-c2ccc[se]2)ccc1-c1ccc(C=O)[se]1 | 0.308 µM (active) | 0.0811 µM (active) | 16.4 µM (inactive) | 2.16 µM (inactive) | 23.3 µM (inactive) | 0.385 µM (active) | 0.325 µM (active) | 0.323 µM (active) | 1.3 µM (inactive) | 8.99 µM (inactive) | 20.9 µM (inactive) | 0.366 µM (active) | 0.247 µM (active) | 8.15 | 16.4 µM (inactive) | 16.6 µM (inactive) | 2.47 µM (inactive) | 0.796 µM (active) | 7.45 µM (inactive) | 0.0418 µM (active)
CCCCCCNC(=S)N/N=C(\C)c1ccccn1 | 0.347 µM (active) | 0.2 µM (active) | 0.604 µM (active) | < 0.01 µM (active) | 0.12 µM (active) | 0.0445 µM (active) | < 0.01 µM (active) | < 0.01 µM (active) | < 0.0322 µM (active) | 0.0493 µM (active) | < 0.0268 µM (active) | < 0.01 µM (active) | 11.4 µM (inactive) | < 0.01 | 0.06 µM (active) | 0.181 µM (active) | 0.741 µM (active) | 0.01 µM (active) | < 0.01 µM (active) | 0.728 µM (active)
NC(=O)c1cc2ccc(O)cc2o/c1=N/NC(=O)c1ccccc1 | 40.2 µM (inactive) | > 100 µM (inactive) | > 100 µM (inactive) | > 100 µM (inactive) | > 100 µM (inactive) | > 100 µM (inactive) | 15.6 µM (inactive) | 75.5 µM (inactive) | 64.3 µM (inactive) | 47.8 µM (inactive) | 79.4 µM (inactive) | 80.5 µM (inactive) | > 100 µM (inactive) | 79.3 | 42.3 µM (inactive) | 61.2 µM (inactive) | 33.4 µM (inactive) | > 100 µM (inactive) | 22.2 µM (inactive) | > 100 µM (inactive)
C/C(=N/CC(=O)O)c1ccccc1 | > 100 µM (inactive) | > 100 µM (inactive) | > 100 µM (inactive) | > 100 µM (inactive) | > 100 µM (inactive) | > 100 µM (inactive) | > 100 µM (inactive) | > 100 µM (inactive) | > 100 µM (inactive) | > 100 µM (inactive) | > 100 µM (inactive) | > 100 µM (inactive) | > 100 µM (inactive) | > 100 | 34.8 µM (inactive) | > 100 µM (inactive) | 39.8 µM (inactive) | > 100 µM (inactive) | 65 µM (inactive) | > 100 µM (inactive)
CC(C)(C)C=C=C(C(C)(C)C)P(=O)(O)O | > 100 µM (inactive) | > 100 µM (inactive) | > 100 µM (inactive) | > 100 µM (inactive) | > 100 µM (inactive) | > 100 µM (inactive) | > 100 µM (inactive) | > 100 µM (inactive) | > 100 µM (inactive) | > 100 µM (inactive) | > 100 µM (inactive) | > 100 µM (inactive) | > 100 µM (inactive) | > 100 | > 100 µM (inactive) | > 100 µM (inactive) | > 100 µM (inactive) | > 100 µM (inactive) | > 100 µM (inactive) | > 100 µM (inactive)
